Measurements as given in US20240051965A1, “OXYGEN-CONTAINING HETEROCYCLIC COMPOUND AND USE THEREOF” (Icahn School of Medicine at Mount Sinai, priority 2022, published 2024).

System: TGF/SMAD Signaling Pathway SBE Reporter-HEK293 Cell Line
Experiment: Luciferase screen, TGF/SMAD Signaling Pathway SBE Reporter-HEK293 cells stimulated with TGFβ
Format: cell-based
Settings: compound 4 hours before TGFβ 10 ng/mL, incubated overnight (18 hours), luminescence
Method: For the data in Table 1, the Bight-Glo™ Luciferase Assay System from Promega was used with TGF/SMAD Signaling Pathway SBE Reporter-HEK293 Cell Line from BPSbioscience. On day 1 SBE reporter-HEK293 cells were seeded at a density of 25,000 cells per well into a white clear-bottom 96-well microplate in 100 μL of growth medium without geneticin. The plate was incubated at 37° C. in a CO2 incubator for 24 hrs. The wells were renewed with 60 μL assay medium and treated with test compounds by adding 5 μL of compounds in medium. The concentration of test compound in medium is adjusted so that 5 μL will provide the desired molarity of the solution. After 4 hours, TGFβ was added to 10 ng/mL. The plate was incubated at 37° C. in a CO2 incubator overnight (18 hours). One hour prior to assay all medium was replaced. The luciferase assay was run using ONE-Step™ Luciferase Assay System by adding 100 μL of ONE-Step™ Luciferase reagent per well, rocking at room temperature for ˜15 to 30 minutes and measuring luminescence using a luminometer. The signals were normalized to percentage inhibition, with non-TGF treated cells as 100% inhibition, and the data were processed by Graphpad Prism.
The symbol “***” indicates IC50<100 nM, “**” indicates IC50≥100 nM but <10 μM, “*” indicates IC50≥10 μM.

## O[C@H]1Cc2cc(-c3noc(-c4ccc(Cl)cc4)n3)cnc2OC12CCC2 [Compound 8]
  IC50: ≥ 10 µM

## Cn1ccc(-c2noc(-c3cnc4c(c3)C[C@H](O)C3(CCC3)O4)n2)n1 [Compound 6]
  IC50: ≥ 10 µM

## O[C@@H]1Cc2cc(-c3nc(-c4ccc(Cl)cc4)no3)cnc2OC12CCC2 [Compound 2]
  IC50: < 0.1 µM

## [2H]C([2H])([2H])C1(C([2H])([2H])[2H])Oc2ncc(-c3nc(-c4ccc(Cl)cc4)no3)cc2C[C@@H]1O [Compound 9]
  IC50: < 0.1 µM

## O[C@H]1Cc2cc(-c3nc(-c4ccc(Cl)cc4)no3)cnc2OC12CCCC2 [Compound 3]
  IC50: ≥ 10 µM

## O[C@H]1Cc2cc(-c3nc(-c4ccc(Cl)c(F)c4)no3)cnc2OC12CCC2 [Compound 4]
  IC50: ≥ 10 µM

## O[C@H]1Cc2cc(-c3nnc(-c4ccc(Cl)cc4)o3)cnc2OC12CCC2 [Compound 7]
  IC50: 0.1 to 10 µM

## Cc1ccc(-c2noc(-c3cnc4c(c3)C[C@H](O)C3(CCC3)O4)n2)cc1 [Compound 5]
  IC50: ≥ 10 µM

## O[C@H]1Cc2cc(-c3nc(-c4ccc(Cl)cc4)no3)cnc2OC12CCC2 [Compound 1]
  IC50: 0.1 to 10 µM
